Experimental data as given in patent US20070185129A1, “ACID ADDITION SALTS OF THIENOPYRANCARBOXAMIDE DERIVATIVES” (Recordati Ireland Limited, priority 2006, published 2007).

Experiments:
[1] = water solubility; format: physicochemical
[2] = target: T1, recombinant human 5-HT1A receptor (Homo sapiens, UniProt P08908); experiment: selectivity for α1a receptor relative to 5-HT1A receptor; format: binding
T1 sequence (P08908 1-422): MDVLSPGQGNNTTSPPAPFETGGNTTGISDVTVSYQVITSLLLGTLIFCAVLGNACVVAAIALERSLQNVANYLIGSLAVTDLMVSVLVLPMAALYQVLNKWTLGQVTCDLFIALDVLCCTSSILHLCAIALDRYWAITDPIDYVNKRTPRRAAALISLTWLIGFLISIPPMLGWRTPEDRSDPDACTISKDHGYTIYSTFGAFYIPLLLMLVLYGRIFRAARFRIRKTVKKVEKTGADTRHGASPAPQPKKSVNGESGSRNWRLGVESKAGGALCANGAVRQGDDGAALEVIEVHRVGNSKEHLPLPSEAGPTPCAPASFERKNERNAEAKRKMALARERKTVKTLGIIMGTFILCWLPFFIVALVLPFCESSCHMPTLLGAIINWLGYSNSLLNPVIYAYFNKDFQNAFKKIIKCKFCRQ

[3] = target: T2, α1b receptor (Homo sapiens, UniProt P35368); experiment: selectivity for α1a receptor compared to α1b receptor; format: binding
T2 sequence (P35368 1-520): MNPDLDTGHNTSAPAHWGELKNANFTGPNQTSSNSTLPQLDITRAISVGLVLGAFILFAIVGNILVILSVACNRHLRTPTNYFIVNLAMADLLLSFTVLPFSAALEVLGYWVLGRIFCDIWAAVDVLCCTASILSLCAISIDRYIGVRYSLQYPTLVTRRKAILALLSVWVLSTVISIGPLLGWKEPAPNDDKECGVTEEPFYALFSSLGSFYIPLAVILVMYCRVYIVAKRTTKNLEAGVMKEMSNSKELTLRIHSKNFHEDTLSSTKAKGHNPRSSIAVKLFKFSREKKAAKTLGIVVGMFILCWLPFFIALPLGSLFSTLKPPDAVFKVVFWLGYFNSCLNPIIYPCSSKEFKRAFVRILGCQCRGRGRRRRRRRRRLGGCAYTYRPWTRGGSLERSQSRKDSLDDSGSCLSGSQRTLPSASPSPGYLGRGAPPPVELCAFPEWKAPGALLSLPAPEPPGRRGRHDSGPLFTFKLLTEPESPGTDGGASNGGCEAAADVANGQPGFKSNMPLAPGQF

[4] = target: T3, α1d receptor (Homo sapiens, UniProt P25100); experiment: selectivity for α1a receptor compared to α1d receptor; format: binding
T3 sequence (P25100 1-572): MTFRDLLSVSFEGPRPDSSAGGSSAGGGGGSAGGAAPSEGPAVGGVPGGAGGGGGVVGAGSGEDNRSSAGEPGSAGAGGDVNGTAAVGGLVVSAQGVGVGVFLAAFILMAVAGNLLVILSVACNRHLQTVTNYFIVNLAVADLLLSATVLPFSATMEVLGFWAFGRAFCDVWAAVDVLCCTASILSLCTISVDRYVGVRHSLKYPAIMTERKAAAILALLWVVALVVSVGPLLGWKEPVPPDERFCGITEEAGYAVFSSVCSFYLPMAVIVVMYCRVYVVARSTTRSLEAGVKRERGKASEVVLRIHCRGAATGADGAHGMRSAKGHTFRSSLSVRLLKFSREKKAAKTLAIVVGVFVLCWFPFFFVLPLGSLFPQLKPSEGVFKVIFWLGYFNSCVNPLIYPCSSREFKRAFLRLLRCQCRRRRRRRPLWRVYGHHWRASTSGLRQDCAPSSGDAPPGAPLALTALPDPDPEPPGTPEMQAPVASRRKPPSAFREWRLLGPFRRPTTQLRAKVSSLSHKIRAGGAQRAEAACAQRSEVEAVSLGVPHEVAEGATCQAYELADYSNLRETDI

[5] = stability of solid form; format: physicochemical
[6] = target: T4, recombinant human α1a receptor (Homo sapiens, UniProt P35348); conditions: cited from earlier work
T4 sequence (P35348 1-466): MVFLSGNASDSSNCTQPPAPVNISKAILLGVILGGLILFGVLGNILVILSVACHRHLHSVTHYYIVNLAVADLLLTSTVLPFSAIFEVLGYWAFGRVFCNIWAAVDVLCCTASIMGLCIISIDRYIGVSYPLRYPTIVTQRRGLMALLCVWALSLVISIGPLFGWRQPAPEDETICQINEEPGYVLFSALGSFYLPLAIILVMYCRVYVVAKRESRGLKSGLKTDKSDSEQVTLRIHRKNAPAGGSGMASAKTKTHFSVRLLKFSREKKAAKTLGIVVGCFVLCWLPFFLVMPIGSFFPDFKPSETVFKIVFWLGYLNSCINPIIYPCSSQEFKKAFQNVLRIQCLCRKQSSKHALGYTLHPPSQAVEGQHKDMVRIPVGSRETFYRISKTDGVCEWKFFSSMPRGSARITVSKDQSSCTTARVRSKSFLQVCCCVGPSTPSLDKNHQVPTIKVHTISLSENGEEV

[7] = test system: α1L receptor; conditions: isolated rabbit aorta model system; cited from earlier work

Row | Structure (SMILES) | water solubility (in words) [1] | solubility ([1]; water, at 25° C.) [mg/mL] | selectivity for the recombinant human α1a receptor relative to the recombinant human 5-HT1A receptor [2] [fold] | selectivity for α1a receptor as compared to the α1b receptor [3] [fold] | selectivity for α1a receptor as compared to the α1d receptor [4] [fold] | heat stability / stability (in words) [5] | affinity for the α1a receptor [6] | functional antagonism of the α1L receptor [7]
1 | COc1ccccc1N1CCN(CCCNC(=O)c2csc3c(=O)cc(C(F)(F)F)oc23)CC1.CS(=O)(=O)O [Example 2A, N-{3-[4-(2-methoxyphenyl)-1-piperazinyl]propyl}-7-oxo-5-trifluoromethyl-7H-thieno[3,2-b]pyran-3-carboxamide mesylate salt] | improved water solubility compared to the free base | 100 |  |  |  |  |  | 
2 | COc1ccccc1N1CCN(CCCNC(=O)c2csc3c(=O)cc(C(F)(F)F)oc23)CC1 [Example 1, N-{3-[4-(2-methoxyphenyl)-1-piperazinyl]propyl}-7-oxo-5-trifluoromethyl-7H-thieno[3,2-b]pyran-3-carboxamide] | poor water solubility |  | ~45 | ~40 | ~6 | heat instability | high affinity | functional antagonism
